Like-named read-outs stand apart in the source and are kept apart here. Marks after values point to notes of the source that are not given here. Blank lines part the entries; values can stand above or below the compound they belong to.
How the values were obtained:
[1] = test system: UDP-glucuronosyltransferases (UGT), rat liver microsomes; assay: Glucuronidation of naringenin in rat liver microsomes
Caco-2 cell membranes = settings: cited from earlier work
[2] = test system: UDP-glucuronosyltransferases (UGT); assay: in vitro; settings: Wistar, rat, pH 7.4
[3] = test system: efflux transporters Mrp2 and Bcrp1; settings: 50 μM MK-571 and 40 μM dipyridamole in perfusate; after 90 min; p<0.05
[4] = test system: efflux transporters Mrp2 and Bcrp1; format: in vivo, rat; settings: 10 μM naringenin
[5] = molecular target: efflux transporters Mrp2 and Bcrp1 (Rattus norvegicus, UniProt Q63120); format: in vivo; settings: ileum; 50 μM MK-571 with 40 μM dipyridamole
Chain of efflux transporters Mrp2 and Bcrp1 (Rattus norvegicus, UniProt Q63120) (Q63120 whole entry): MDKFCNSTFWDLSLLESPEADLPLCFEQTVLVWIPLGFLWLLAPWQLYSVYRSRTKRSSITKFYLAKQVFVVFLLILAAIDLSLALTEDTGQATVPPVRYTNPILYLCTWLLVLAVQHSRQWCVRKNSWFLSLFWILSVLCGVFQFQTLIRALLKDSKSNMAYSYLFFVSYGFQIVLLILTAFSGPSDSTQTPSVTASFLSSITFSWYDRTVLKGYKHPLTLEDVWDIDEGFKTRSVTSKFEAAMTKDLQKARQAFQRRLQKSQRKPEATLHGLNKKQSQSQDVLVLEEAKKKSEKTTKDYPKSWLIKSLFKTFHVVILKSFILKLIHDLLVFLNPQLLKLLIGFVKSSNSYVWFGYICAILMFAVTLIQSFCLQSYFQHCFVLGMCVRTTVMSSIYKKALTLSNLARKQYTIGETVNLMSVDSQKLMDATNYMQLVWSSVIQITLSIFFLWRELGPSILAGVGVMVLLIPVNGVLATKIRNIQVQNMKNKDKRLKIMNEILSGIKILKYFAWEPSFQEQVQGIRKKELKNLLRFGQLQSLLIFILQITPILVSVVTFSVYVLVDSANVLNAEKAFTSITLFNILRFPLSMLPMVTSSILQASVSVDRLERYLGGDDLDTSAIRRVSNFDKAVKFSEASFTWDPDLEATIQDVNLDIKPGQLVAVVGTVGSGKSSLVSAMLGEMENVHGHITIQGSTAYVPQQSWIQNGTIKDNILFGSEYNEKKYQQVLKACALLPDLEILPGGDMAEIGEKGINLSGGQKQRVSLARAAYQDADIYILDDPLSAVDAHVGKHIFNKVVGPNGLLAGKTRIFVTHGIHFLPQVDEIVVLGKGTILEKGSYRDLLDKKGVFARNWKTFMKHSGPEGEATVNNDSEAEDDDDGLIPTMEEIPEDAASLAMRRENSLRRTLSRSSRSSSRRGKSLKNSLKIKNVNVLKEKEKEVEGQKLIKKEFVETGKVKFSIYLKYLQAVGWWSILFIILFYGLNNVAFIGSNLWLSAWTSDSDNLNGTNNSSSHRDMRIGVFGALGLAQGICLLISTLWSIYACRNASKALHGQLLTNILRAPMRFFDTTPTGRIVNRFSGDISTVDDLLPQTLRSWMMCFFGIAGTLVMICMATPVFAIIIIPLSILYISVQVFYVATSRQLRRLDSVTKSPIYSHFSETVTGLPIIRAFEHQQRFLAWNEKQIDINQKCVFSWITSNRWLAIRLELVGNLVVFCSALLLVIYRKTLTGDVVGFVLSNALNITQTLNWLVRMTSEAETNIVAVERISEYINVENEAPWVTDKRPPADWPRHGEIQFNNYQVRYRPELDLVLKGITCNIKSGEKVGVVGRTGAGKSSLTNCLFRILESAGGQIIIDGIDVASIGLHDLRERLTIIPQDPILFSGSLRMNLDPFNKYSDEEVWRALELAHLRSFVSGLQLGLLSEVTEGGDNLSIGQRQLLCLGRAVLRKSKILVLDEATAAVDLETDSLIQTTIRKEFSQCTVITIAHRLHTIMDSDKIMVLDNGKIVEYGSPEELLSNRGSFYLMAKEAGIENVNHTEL

[6] = test system: UDP-glucuronosyltransferases (UGT); assay: Glucuronidation of naringenin in rat liver microsomes; settings: Wistar, rat, pH 7.4
[7] = test system: UDP-glucuronosyltransferases (UGT), rat jejunum microsomes; assay: Glucuronidation of naringenin in rat jejunum microsomes
[8] = test system: UDP-glucuronosyltransferases (UGT); assay: as above; settings: Wistar, rat, pH 7.4
[9] = test system: UDP-glucuronosyltransferases (UGT), rat ileum microsomes; assay: Glucuronidation of naringenin in rat ileum microsomes
[10] = test system: UDP-glucuronosyltransferases (UGT); assay: as above; settings: Wistar, rat, pH 7.4
[11] = Steady-state blood concentration after intestinal perfusion; format: in vivo, rat; settings: tail vein blood after perfusion with 10 μM naringenin for 2.5 h
[12] = format: in vivo, rat; settings: 10 μM naringenin perfusate
[13] = cited from earlier work
[14] = test system: UDP-glucuronosyltransferases (UGT); assay: Glucuronidation of naringenin in rat colon microsomes; format: in vitro ADME; settings: Wistar, rat, pH 7.4
[15] = test system: UDP-glucuronosyltransferases (UGT), rat colon microsomes; assay: as above; format: in vitro ADME

SMILES: CN(C)C(=O)CCSC(SCCC(=O)O)c1cccc(/C=C/c2ccc3ccc(Cl)cc3n2)c1 (centres unmarked) [MK-571]
effect on metabolism rate of naringenin, MK-571 and dipyridamole used together ([1]; 10 μM naringenin, p < 0.05 vs control): decreased significantly
permeability across Caco-2 cell membranes (Caco-2 cell membranes): ~10 ×10⁻⁶ cm/s
inhibition at 40 min, 50 μM [2]: 50%
effect on the biliary excretion of aglycone, inhibitors used simultaneously [3]: increased
effect on the absorption of naringenin, two inhibitors used together ([4]; 50 μM MK-571 + 40 μM dipyridamole): did not change
effect on the efflux of glucuronides in duodenum and jejunum, two inhibitors used together ([4]; 50 μM MK-571 + 40 μM dipyridamole, p < 0.05): decreased substantially
effect of inhibitor on the absorption of naringenin ([4]; inhibitor alone (50 μM MK-571 or 40 μM dipyridamole), four regions of intestine): no effect
decrease in dipyridamole-stimulated glucuronide efflux by MK-571 [5]: more than 80%

SMILES: OCCN(CCO)c1nc(N2CCCCC2)c2nc(N(CCO)CCO)nc(N3CCCCC3)c2n1 [dipyridamole, Dipyridamole]
permeability across Caco-2 cell membranes (Caco-2 cell membranes): ~10 ×10⁻⁶ cm/s

R (autoact only), rate of enzyme activity activation [1]: 0.38
Vmax-d (maximum activation of enzyme activity) [1]: 7.40 nmol/min/mg protein
Vmax-o (intrinsic enzyme activity) [1]: 5.83 nmol/min/mg protein
Km [6]: 13.4 µM
R (autoact only), rate of enzyme activity activation [7]: 0.39
Vmax-d (maximum activation of enzyme activity) [7]: 5.53 nmol/min/mg protein
Vmax-o (intrinsic enzyme activity) [7]: 2.00 nmol/min/mg protein
Km [8]: 3.62 µM
Km [10]: 2.54 µM
intact naringenin in blood [11]: not detected
amounts of naringenin absorbed (% of perfused amounts or Mtotal) ([12]; colon): 68%
amounts of naringenin absorbed (% of perfused amounts or Mtotal) ([12]; duodenum): 47%
amounts of naringenin absorbed (% of perfused amounts or Mtotal) ([12]; jejunum): 39%
amounts of naringenin absorbed (% of perfused amounts or Mtotal) ([12]; terminal ileum): 42%
Km [14]: 21.2 µM
R (autoact only), rate of enzyme activity activation [15]: 1.14
Vmax-d (maximum activation of enzyme activity) [15]: 5.49 nmol/min/mg protein
Vmax-o (intrinsic enzyme activity) [15]: 1.08 nmol/min/mg protein
SMILES: O=C1C[C@@H](c2ccc(O)cc2)Oc2cc(O)cc(O)c21 [naringenin, Naringenin]
Vmax ([1]; sum of Vmax-0 and Vmax-d): 13.23* nmol/min/mg protein
Vmax ([7]; sum of Vmax-0 and Vmax-d): 7.53* nmol/min/mg protein
Vmax [9]: 1.99* nmol/min/mg protein
bioavailability [13]: less than 10%
Vmax ([15]; sum of Vmax-0 and Vmax-d): 6.56* nmol/min/mg protein

Reference: article PMC2941777 (Molecular pharmaceutics, 2009)
